From patent US8748436B2, “Carboxylic acid derivatives having a 2,5,7-substituted oxazolopyrimidine ring” (Sanofi, priority 2010, dated 2014)

What follows are compounds tested against T1, human Edg-1 receptor (Homo sapiens, UniProt P21453) (assay: GTP-γ-S assay using human Edg-1 receptors (scintillation proximity assay, CHO Flp-In cell membrane preparation)). Details: test compound at 10 μM; high control 10 μM S1P regarded as 100% activation; [35S]GTP-γ-S binding, triplicate.
T1 construct: FLAG (N); expressed in transfected cells; membrane preparation
T1 sequence (P21453 whole entry): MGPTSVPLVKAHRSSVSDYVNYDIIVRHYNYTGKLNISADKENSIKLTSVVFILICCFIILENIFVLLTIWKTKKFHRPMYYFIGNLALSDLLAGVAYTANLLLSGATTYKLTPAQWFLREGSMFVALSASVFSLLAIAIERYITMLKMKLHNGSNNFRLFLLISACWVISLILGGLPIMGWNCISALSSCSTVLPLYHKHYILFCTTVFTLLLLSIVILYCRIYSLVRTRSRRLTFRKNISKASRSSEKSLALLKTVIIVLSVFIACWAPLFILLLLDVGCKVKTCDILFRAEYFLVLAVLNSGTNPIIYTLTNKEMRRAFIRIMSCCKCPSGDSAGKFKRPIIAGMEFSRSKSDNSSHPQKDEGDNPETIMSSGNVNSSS
Format: biochemical
Source text: A) GTP-γ-S Assay Using Human Edg-1 Receptors
In order to determine the Edg-1 receptor activation by the compounds of the invention, a GTP-γ-S (guanosine 5′-[thio]triphosphate) assay for G-protein coupled receptor binding based on the scintillation proximity assay principle was used, employing a cell membrane preparation from a CHO Flp-In cell line which constitutively overexpresses the human Edg-1 receptor.
The Flp-In™ expression system (Invitrogen, cat. no. K6010-01) allows the generation of stable mammalian cell lines into which the gene of interest has been integrated through homologous recombination at a specific genomic location called Flp Recombination Target (FRT) site by means of a Flp recombinase encoded by the pOG44 expression plasmid. The integration of the pcDNA5/FRT expression construct into the Flp-In host cell line genome results in the transcription of the gene of interest. The stably transfected cells become hygromycin-resistant.
One day prior to transfection, 200 000 Flp-In-CHO cells were seeded in Ham F-12 medium (Invitrogen, cat. no. 31765) supplemented with 10% fetal calf serum (FCS; Perbio Science, cat. no. SH30068.03) in a 6-well plate and incubated at 37° C./5% CO2 overnight. Using the FuGENE® 6 transfection reagent (Roche, cat. no. 11988387001), cells were cotransfected with the Flp recombinase expression plasmid pOG44 and a modified plasmid additionally containing the edg-1 gene (accession no. NM_001400) termed as pcDNA5-FRT-TO_nFLAG_DEST-EDG-1 with a 9:1 ratio. To obtain the modified pcDNA5-FRT-TO_nFLAG_DEST plasmid, the Invitrogen plasmid pcDNA5/FRT/TO (Invitrogen, cat. no. V6520-20) was adapted to the Gateway® (Invitrogen) cloning system by inserting a Gateway cassette containing attR recombination sites flanking a ccdB gene and a chloramphenicol-resistance gene (Gateway conversion system, Invitrogen, cat. no. 11828-029). In addition a FLAG tag epitope was added before the 5′ att recombination site to allow recombinant expression of N-terminally FLAG-tagged proteins.
For the transfection of one well, 1.08 μg of pOG44 and 0.12 μg of pcDNA5-FRT-TO_nFLAG_DEST-EDG-1 were mixed to 100 μl of serum-free Ham F-12 medium containing 6 μl of FuGENE® 6 transfection reagent. After 20 min of incubation, the transfection reagent/DNA complex was distributed dropwise on the cells. The cells were incubated for 24 h at 37° C. Then the cells from 3 wells were transferred to a T75 flask (Greiner Cellstar®, cat. no. 658175) containing Ham F-12 medium supplemented with 10% of FCS but without antibiotic and were incubated another 24 h. 48 h after transfection, the medium was replaced by selection medium (Ham F-12 supplemented with 10% of FCS and 300 μg/ml of hygromycin B (Invitrogen, cat. no. 10687-010)). The medium was exchanged every 2 to 3 days until a resistant population of cells had grown. […] After 2 weeks of selection, the cells were transferred into T175 flasks (Greiner Cellstar®, cat. no. 660175) and cultivated for batch production. Cells were harvested from the culture flasks by short treatment (2 to 5 min) with Accutase (PAA, cat. no. L11-007), resuspended in selection medium (see above) and centrifuged at 200×g for 5 min. The cells were resuspended in a mixture of 90% of FCS and 10% of dimethylsulfoxide and stored frozen in liquid nitrogen.
A membrane preparation was obtained by standard methods from the afore-described CHO Flp-In cell line constitutively overexpressing the human Edg-1 receptor. Briefly, the cryopreserved cells were taken in culture and grown until confluency in T175 cell culture flasks (Becton Dickinson, cat. no. 35 5001). […]

In order of rising “% Activation (Edg-1 receptor activation in percent of the activation by 10 μM S1P)” value:
1. CCCOc1nc(Oc2cccc(F)c2)nc2oc(-c3cc(C)c(OCC(=O)O)c(C)c3)nc12 [Example 34, {4-[5-(3-fiuorophenoxy)-7-propoxy-oxazolo[5,4-d]pyrimidin-2-yl]-2,6-dimethyl-phenoxy}-acetic acid]  48%
2. CCCOc1nc(Oc2ccc(F)cc2)nc2oc(-c3cc(C)c(OCC(=O)O)c(C)c3)nc12 [Example 35, {4-[5-(4-fiuorophenoxy)-7-propoxy-oxazolo[5,4-d]pyrimidin-2-yl]-2,6-dimethylphenoxy}-acetic acid]  79%

Same assay, conditions: test compound at 10 μM; high control 10 μM S1P regarded as 100% activation; [35S]GTP-γ-S binding, triplicate; read-out: % Activation (Edg-1 receptor activation in percent of the activation by 10 μM S1P)

In order of rising activation at 10 µM:
1. CCCOc1nc(Oc2ccc(C)cc2F)nc2oc(-c3cc(C)c(OCC(=O)O)c(C)c3)nc12 [Example 44, {4-[5-(2-fluoro-4-methylphenoxy)-7-propoxy-oxazolo[5,4-d]pyrimidin-2-yl]-2,6-dimethylphenoxy}-acetic acid]  43%
2. CCOc1nc(Oc2cccc(Cl)c2)nc2oc(-c3cc(C)c(OCC(=O)O)c(C)c3)nc12 [Example 38, {4-[5-(3-chlorophenoxy)-7-ethoxy-oxazolo[5,4-d]pyrimidin-2-yl]-2,6-dimethyl-phenoxy}-acetic acid]  55%
3. CCCOc1nc(Oc2ccc(Cl)cc2)nc2oc(-c3cc(C)c(OCC(=O)O)c(C)c3)nc12 [Example 46, {4-[5-(4-chlorophenoxy)-7-propoxy-oxazolo[5,4-d]pyrimidin-2-yl]-2,6-dimethylphenoxy}-acetic acid]  59%
4. CCCOc1nc(Oc2ccc(F)c(C)c2)nc2oc(-c3cc(C)c(OCC(=O)O)c(C)c3)nc12 [Example 43, {4-[5-(4-fluoro-3-methylphenoxy)-7-propoxy-oxazolo[5,4-d]pyrimidin-2-yl]-2,6-dimethyl-phenoxy}-acetic acid]  60%
5. CCCOc1nc(Oc2cc(C)cc(F)c2)nc2oc(-c3cc(C)c(OCC(=O)O)c(C)c3)nc12 [Example 42, {4-[5-(3-fluoro-5-methylphenoxy)-7-propoxy-oxazolo[5,4-d]pyrimidin-2-yl]-2,6-dimethyl-phenoxy}-acetic acid]  66%
6. CCCOc1nc(Oc2cc(C)ccc2F)nc2oc(-c3cc(C)c(OCC(=O)O)c(C)c3)nc12 [Example 45, {4-[5-(2-fluoro-5-methylphenoxy)-7-propoxy-oxazolo[5,4-d]pyrimidin-2-yl]-2,6-dimethylphenoxy}-acetic acid]  67%
7. CCCOc1nc(Oc2ccc(C)cc2)nc2oc(-c3cc(C)c(OCC(=O)O)c(C)c3)nc12 [Example 31, [2,6-dimethyl-4-(7-propoxy-5-(4-methylphenoxy)-oxazolo[5,4-d]pyrimidin-2-yl)-phenoxy]-acetic acid]  72%
8. CCCOc1nc(Oc2cccc(OC)c2)nc2oc(-c3cc(C)c(OCC(=O)O)c(C)c3)nc12 [Example 41, {4-[5-(3-methoxyphenoxy)-7-propoxy-oxazolo[5,4-d]pyrimidin-2-yl]-2,6-dimethylphenoxy}-acetic acid]  73%
9. CCCOc1nc(Oc2cccc(C)c2)nc2oc(-c3cc(C)c(OCC(=O)O)c(C)c3)nc12 [Example 29, [2,6-dimethyl-4-(7-propoxy-5-(3-methylphenoxy)-oxazolo[5,4-d]pyrimidin-2-yl)-phenoxy]-acetic acid]  75%
10. CCCOc1nc(Oc2cnsn2)nc2oc(-c3cc(C)c(OCC(=O)O)c(C)c3)nc12 [Example 28, {2,6-dimethyl-4-[7-propoxy-5-([1,2,5]thiadiazol-3-yloxy)-oxazolo[5,4-d]pyrimidin-2-yl]-phenoxy}-acetic acid]  83%
11. CCCOc1nc(Oc2ccccc2Cl)nc2oc(-c3cc(C)c(OCC(=O)O)c(C)c3)nc12 [Example 47, {4-[5-(2-chlorophenoxy)-7-propoxy-oxazolo[5,4-d]pyrimidin-2-yl]-2,6-dimethylphenoxy}-acetic acid]  86%
12. CCCOc1nc(Oc2cc(F)cc(F)c2)nc2oc(-c3cc(C)c(OCC(=O)O)c(C)c3)nc12 [Example 50, {4-[5-(3,5-difluorophenoxy)-7-propoxy-oxazolo[5,4-d]pyrimidin-2-yl]-2,6-dimethyl-phenoxy}-acetic acid]  86%
13. CCCOc1nc(Oc2cccc(CC)c2)nc2oc(-c3cc(C)c(OCC(=O)O)c(C)c3)nc12 [Example 40, {4-[5-(3-ethylphenoxy)-7-propoxy-oxazolo[5,4-d]pyrimidin-2-yl]-2,6-dimethyl-phenoxy}-acetic acid]  95%
14. CCCOc1nc(Oc2ccccc2C)nc2oc(-c3cc(C)c(OCC(=O)O)c(C)c3)nc12 [Example 30, [2,6-dimethyl-4-(7-propoxy-5-(2-methylphenoxy)-oxazolo[5,4-d]pyrimidin-2-yl)-phenoxy]-acetic acid]  97%
15. CCCOc1nc(Oc2cccc(F)c2F)nc2oc(-c3cc(C)c(OCC(=O)O)c(C)c3)nc12 [Example 49, {4-[5-(2,3-difluorophenoxy)-7-propoxy-oxazolo[5,4-d]pyrimidin-2-yl]-2,6-dimethylphenoxy}-acetic acid]  103%
16. CCCOc1nc(Oc2ccsn2)nc2oc(-c3cc(C)c(OCC(=O)O)c(C)c3)nc12 [Example 27, {4-[5-(isothiazol-3-yloxy)-7-propoxy-oxazolo[5,4-d]pyrimidin-2-yl]-2,6-dimethylphenoxy}-acetic acid]  109%
17. CCCOc1nc(Oc2cncc(C)c2)nc2oc(-c3cc(C)c(OCC(=O)O)c(C)c3)nc12 [Example 33, {2,6-dimethyl-4-[5-(5-methylpyridin-3-yloxy)-7-propoxy-oxazolo[5,4-d]pyrimidin-2-yl]-phenoxy}-acetic acid]  110%
18. CCCOc1nc(Oc2ccc(C)nc2)nc2oc(-c3cc(C)c(OCC(=O)O)c(C)c3)nc12 [Example 32, {2,6-dimethyl-4-[5-(6-methylpyridin-3-yloxy)-7-propoxy-oxazolo[5,4-d]pyrimidin-2-yl]-phenoxy}-acetic acid]  114%
19. CCCOc1nc(Oc2cncc(Cl)c2)nc2oc(-c3cc(C)c(OCC(=O)O)c(C)c3)nc12 [Example 48, {4-[5-(5-chloropyridin-3-yloxy)-7-propoxy-oxazolo[5,4-d]pyrimidin-2-yl]-2,6-dimethyl-phenoxy}-acetic acid]  115%
20. CCOc1nc(Oc2cc(F)ccc2C)nc2oc(-c3cc(C)c(OCC(=O)O)c(C)c3)nc12 [Example 36, {4-[7-ethoxy-5-(5-fluoro-2-methylphenoxy)-oxazolo[5,4-d]pyrimidin-2-yl]-2,6-dimethyl-phenoxy}-acetic acid]  116%
21. CCCOc1nc(Oc2cncc(F)c2)nc2oc(-c3cc(C)c(OCC(=O)O)c(C)c3)nc12 [Example 37, {4-[5-(5-fluoropyridin-3-yloxy)-7-propoxy-oxazolo[5,4-d]pyrimidin-2-yl]-2,6-dimethyl-phenoxy}-acetic acid]  117%
22. CCOc1nc(Oc2cc(F)ccc2F)nc2oc(-c3cc(C)c(OCC(=O)O)c(C)c3)nc12 [Example 39, {4-[5-(2,5-difluorophenoxy)-7-ethoxy-oxazolo[5,4-d]pyrimidin-2-yl]-2,6-dimethyl-phenoxy}-acetic acid]  121%
23. CCOc1nc(Oc2ccccc2F)nc2oc(-c3cc(C)c(OCC(=O)O)c(C)c3)nc12 [Example 26, {4-[7-ethoxy-5-(2-fluorophenoxy)-oxazolo[5,4-d]pyrimidin-2-yl]-2,6-dimethyl-phenoxy}-acetic acid]  127%
